Test results: patent US20170239253A1, “COMPOSITIONS AND METHODS FOR THE REDUCTION OR PREVENTION OF NON-ALCOHOLIC STEATOHEPATITIS (NASH)” (NuSirt Sciences, Inc., priority 2015, published 2017)

What was measured:
[1] = 25 mg icariin/kg diet; corresponding to 4 mg/kg body weight/day; cited from earlier work
[2] = test system: C57Bl/6 mice on high fat diet (HFD); assay: Histological analysis of hepatic lipid accumulation (hepatic steatosis), high fat diet model
Description: (§1) Chronic high fat diet was used in C57Bl/6 mice as an experimental model of hepatic steatosis. Male C57/BL6 mice were either maintained on standard low-fat diet (control; LFD; 10% energy from fat) or placed on a high fat (HFD; 60% energy from fat, Research Diets #D12492, Research Diets, Inc., New Brunswick, N.J.) at six weeks of age to induce obesity and fatty infiltration of the liver. […] Animals fed with LFD have normal cellular structure in liver cells. […] Animals were then randomized to treatments for an additional six weeks, with 10 animals per group, as specified in the following examples.
(§2) The 1.5 g/kg diet of metformin corresponds to a therapeutically effective dose of metformin in humans.
(§3) Following induction of hepatic steatosis as described in Example 1, animals were treated for six weeks according to the following treatment groups as depicted in Table 22:
(§4) In this study, the effects of metformin alone (therapeutic dose) vs. combination therapy with sub-therapeutic amounts of metformin and HMB on liver weight and hepatic lipid accumulation were assessed. Following induction of hepatic steatosis as described in Example 1, animals were treated for six weeks according to the following treatment groups as depicted in Table 23:

[3] = test system: C57Bl/6 mice on high fat diet (HFD); conditions: Example 3; metformin alone 1.5 g/kg diet; leucine 24 g/kg + metformin 0.5 g/kg
Description: Chronic high fat diet was used in C57Bl/6 mice as an experimental model of hepatic steatosis. Male C57/BL6 mice were either maintained on standard low-fat diet (control; LFD; 10% energy from fat) or placed on a high fat (HFD; 60% energy from fat, Research Diets #D12492, Research Diets, Inc., New Brunswick, N.J.) at six weeks of age to induce obesity and fatty infiltration of the liver. […] Animals were then randomized to treatments for an additional six weeks, with 10 animals per group, as specified in the following examples.
In this study, the effects of metformin alone (therapeutic dose) vs. combination therapy with sub-therapeutic amounts of metformin and leucine on liver weight and hepatic lipid accumulation were assessed.

[4] = test system: C57Bl/6 mice on high fat diet (HFD); assay: Liver weight after six weeks treatment in chronic high fat diet model of hepatic steatosis; type: in vivo
Description: as §1, §2, §3, §4

[5] = test system: C57Bl/6 mice on high fat diet (HFD); assay: Prophylactic treatment concurrent with high fat diet: liver mass and hepatic lipid accumulation; type: in vivo; conditions: six weeks, metformin alone 1.5 g/kg
Experimental: In this study, the prophylactic effects of metformin alone, and various combinations of metformin, leucine, and resveratrol on liver mass and hepatic steatosis are assessed. C57Bl/6 mice are assigned to the following experimental groups as depicted in Table 25: Drug treatments and high fat diet feeding (as described in Example 1) are initiated on the same day and are carried out for six weeks. The effects of the treatments and diet on liver mass and hepatic lipid accumulation are assessed as described in the preceding examples. […] In this study, the prophylactic effects of metformin alone, and various combinations of metformin, HMB, and resveratrol on liver mass and hepatic steatosis are assessed. C57Bl/6 mice are assigned to the following experimental groups as depicted in Table 26: Drug treatments and high fat diet feeding (as described in Example 1) are initiated on the same day and are carried out for six weeks. The effects of the treatments and diet on liver mass and hepatic lipid accumulation are assessed as described in the preceding examples. […] In this study, the prophylactic effects of sub-therapeutic leucine alone, and co-administration of leucine and the PDE5-specific inhibitor icariin on liver mass and hepatic steatosis are assessed. […] The effects of the treatments and diet on liver mass and hepatic lipid accumulation are assessed as described in the preceding examples.

Row | Molecule | effect on liver mass or hepatic lipid accumulation [1] | hepatic steatosis (histology) ([2]; Example 2, HFD mice, six weeks, metformin alone at therapeutic dosage, combinations at sub-therapeutic dosages) | hepatic steatosis (histology) ([2]; Example 3, metformin alone therapeutic, leucine + metformin 0.5 g/kg) | effect on liver triglycerides [3] | effect on liver weight ([4]; Example 2, metformin alone 1.5 g/kg diet, leucine 24 g/kg diet, resveratrol 12.5 mg/kg diet) | effect on liver weight ([4]; Example 3, metformin alone 1.5 g/kg diet, leucine 24 g/kg + metformin 0.25 and 0.5 g/kg, p<0.02 vs. HFD) | effect on liver weight ([4]; Example 4, metformin alone 1.5 g/kg diet, CaHMB 2 g/kg diet + metformin 0.25 and 0.5 g/kg, p<0.03) | HFD-induced increase in liver mass and hepatic lipid accumulation (prophylactic) ([5]; Example 6, treatment and HFD started same day, leucine 24 g/kg + metformin 0.15-0.50 g/kg ± resveratrol 12.5 mg/kg diet) | HFD-induced increase in liver mass and hepatic lipid accumulation (prophylactic) ([5]; Example 7, CaHMB 2 g/kg + metformin 0.15-0.50 g/kg ± resveratrol 12.5 mg/kg diet)
1 | COc1ccc(-c2oc3c(CC=C(C)C)c(O[C@@H]4O[C@H](CO)[C@@H](O)[C@H](O)[C@H]4O)cc(O)c3c(=O)c2O[C@@H]2O[C@@H](C)[C@H](O)[C@@H](O)[C@H]2O)cc1 [icariin] | no effect |  |  |  |  |  |  |  | 
2 | metformin |  | partial reversal of the effects of HFD on hepatic steatosis | partially reversed hepatic steatosis | partially reversed the effect of high fat diet on liver triglycerides | partially reverse the effect of high fat diet on liver weight | reversed the effect of high fat diet on liver weight back to control levels | reversed the effect of high fat diet on liver weight back to control levels | attenuates the HFD-induced increase in liver mass and hepatic lipid accumulation | attenuates the HFD-induced increase in liver mass and hepatic lipid accumulation
